Data set [1] can be described thus: Cmax in rat at 1 mg/kg, po or 1 mg/kg, iv. It is filed as ADME, organism-based. On the set-up: dose 1 mg/kg. The following applies: in vivo.
The target of a further data set is T1, Cytochrome P450 2B6 (Homo sapiens, UniProt P20813).
T1 sequence (P20813 whole entry): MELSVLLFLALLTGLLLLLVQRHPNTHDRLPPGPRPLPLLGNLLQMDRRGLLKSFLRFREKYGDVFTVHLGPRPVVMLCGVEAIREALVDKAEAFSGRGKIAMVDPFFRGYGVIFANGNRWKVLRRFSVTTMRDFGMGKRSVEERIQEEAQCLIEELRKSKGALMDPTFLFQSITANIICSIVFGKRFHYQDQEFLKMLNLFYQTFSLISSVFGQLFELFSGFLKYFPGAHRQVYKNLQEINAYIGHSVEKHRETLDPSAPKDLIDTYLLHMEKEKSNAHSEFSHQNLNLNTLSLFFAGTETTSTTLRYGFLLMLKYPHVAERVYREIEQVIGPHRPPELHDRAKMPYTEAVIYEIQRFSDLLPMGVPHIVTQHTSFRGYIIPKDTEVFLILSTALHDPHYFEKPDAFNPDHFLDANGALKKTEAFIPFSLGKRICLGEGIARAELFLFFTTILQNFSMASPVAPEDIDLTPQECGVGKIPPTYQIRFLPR
Put plainly: Inhibition of CYP2B6 (unknown origin). The data set is classed as ADME.

The nature of data set [2]: Protein binding in dog assessed as bound fraction. It is filed as ADME, Canis lupus familiaris. The settings on record: read-out: PB (converted).
The species named for a further data set is Homo sapiens. Briefly: Inhibition of calcium channel (unknown origin) at 10 uM by patch clamp technique relative to control. In general terms: Patch clamp records ionic current or voltage across a cell membrane.
Data set [3] can be described thus: Permeability of compound at pH 5.5 by PAMPA. The data set is classed as ADME. The following applies: read-out: permeability.
A short description of data set [4]: Cmax in dog at 0.1 mg/kg, po or 0.1 mg/kg, iv. On the set-up: dose 0.1 mg/kg. The following applies: in vivo. It is filed as ADME, organism-based, Canis lupus familiaris.
Data set [5] is described as follows: Half-life in cynomolgus monkey at 0.5 mg/kg, po or 0.5 mg/kg, iv. It is filed as ADME, organism-based, Macaca fascicularis. The settings on record: in vivo.
A short description of data set [6]: Metabolic stability in dog assessed as half-life. The data set is classed as ADME, Canis lupus familiaris.

A word on the Cmax: it is the peak of the concentration-time curve. One may read the IC50 as the concentration needed to halve the response being measured. The term inhibition denotes how much of the control response was suppressed. A word on the half-life: it is how long it takes for the measured level to halve.

On to `O=C(O)C1CN(Cc2ccc3c(c2)CCc2c-3noc2-c2onc(-c3ccccc3)c2C(F)(F)F)C1`, for which the Cmax in data set [1] amounted to 140 nM; in data set [4], 90 nM. At Cytochrome P450 2B6, this molecule gave a 50% inhibitory concentration (IC50) greater than 40 µM. Besides, the fraction unbound in data set [2] is 0.005. Also, the inhibition in the data set listed under Homo sapiens was determined as 11%. Besides, the Papp in data set [3] was 26 ×10⁻⁶ cm/s. The half-life in data set [5] was 18 h; in data set [6] it was greater than 2 h.

For the origin of these results see ChEMBL document CHEMBL4680083, “Identification of Tricyclic Agonists of Sphingosine-1-phosphate Receptor 1 (S1P) Employing Ligand-Based Drug Design” (J Med Chem, 2016).
